Where two headings read alike, the source gives them in different places.
Columns and labels:
Type in all cases: biochemical
Caspase-1 = biological target: T1, Caspase-1 (Homo sapiens, UniProt P29466); test: Caspase-1 inhibitor screening assay (BioVision kit, YVAD-AFC); conditions: read-out: IC50 Casp1
T1 construct: mixing the compounds with the respective active caspases; purchased BioVision K151-100
T1 sequence (P29466 120-297 limits assumed): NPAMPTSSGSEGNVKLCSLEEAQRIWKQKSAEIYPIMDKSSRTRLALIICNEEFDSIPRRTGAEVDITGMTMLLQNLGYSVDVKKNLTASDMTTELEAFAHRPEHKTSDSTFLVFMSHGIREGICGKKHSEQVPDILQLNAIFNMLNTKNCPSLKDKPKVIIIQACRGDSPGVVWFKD
T1 sequence (P29466 317-404 limits assumed): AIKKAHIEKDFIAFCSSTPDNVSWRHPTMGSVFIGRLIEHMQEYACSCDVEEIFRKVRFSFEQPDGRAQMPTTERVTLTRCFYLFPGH
Description: (§1) The efficacy of an array of compounds as an inhibitor of the activity of Caspases 1 through 10 were assessed by using the respective Caspase Inhibitor Drug Screening Kits (Caspase-1 Catalog #: K151-100, Caspase-2 Catalog #: K152-100, Caspase-3 Catalog #: K153-100, Caspase-4 Catalog #: K154-100, Caspase-5 Catalog #: K155-100, Caspase-6 Catalog #: K156-100, Caspase-7 Catalog #: K157-100, Caspase-8 Catalog #: K158-100, Caspase-9 Catalog #: K159-100, Caspase-10 Catalog #: K160-100, BioVision) following the instructions of the manufacturer. […] Active caspases cleaved their respective synthetic substrates to release free AFC, which was then quantified by fluorometry.
(§2) Briefly, the compounds were first tested at 2 concentrations (10 uM and 100 uM final) to determine if there is a hit. […] Each condition was tested in duplicates. […] For some samples, a smaller range of concentrations was tested depending on the % Inhibition results at 10 uM and 100 uM. Results were summarized in Tables 2, 3, and 4 herein after. Table 2 represents the IC50 values (uM) of the test compounds as inhibitors of the activity of the various caspases.
(§3) (*) RFU (no inhibitor control)—RFU (compound at a specific concentration)
(§4) RFU (no inhibitor control)

Caspase-10 = biological target: T2, Caspase-10 (Homo sapiens, UniProt Q92851); test: Caspase-10 inhibitor screening assay (BioVision kit, AEVD-AFC); conditions: read-out: IC50 Casp10
T2 construct: mixing the compounds with the respective active caspases; purchased BioVision K160-100
T2 sequence (Q92851 220-415 limits assumed): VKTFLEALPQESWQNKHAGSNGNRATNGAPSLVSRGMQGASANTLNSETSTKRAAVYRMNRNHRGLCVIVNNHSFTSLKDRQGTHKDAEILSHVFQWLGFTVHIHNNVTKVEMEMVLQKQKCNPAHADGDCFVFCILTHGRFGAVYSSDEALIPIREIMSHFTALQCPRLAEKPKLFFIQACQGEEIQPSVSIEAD
T2 sequence (Q92851 416-521 limits assumed): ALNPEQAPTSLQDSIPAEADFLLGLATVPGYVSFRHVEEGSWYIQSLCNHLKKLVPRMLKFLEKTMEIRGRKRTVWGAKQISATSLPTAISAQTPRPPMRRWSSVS
Description: as §1, §2, §3, §4

Caspase-5 = biological target: T3, Caspase-5 (Homo sapiens, UniProt P51878); test: Caspase-5 inhibitor screening assay (BioVision kit, WEHD-AFC); conditions: read-out: IC50 Casp5
T3 construct: mixing the compounds with the respective active caspases; purchased BioVision K155-100
T3 sequence (P51878 137-327 limits assumed): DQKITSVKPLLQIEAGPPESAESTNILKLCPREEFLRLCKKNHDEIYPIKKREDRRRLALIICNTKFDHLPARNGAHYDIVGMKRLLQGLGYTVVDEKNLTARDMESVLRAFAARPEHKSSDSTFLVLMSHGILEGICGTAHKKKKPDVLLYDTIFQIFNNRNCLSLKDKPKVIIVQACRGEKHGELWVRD
T3 sequence (P51878 347-434 limits assumed): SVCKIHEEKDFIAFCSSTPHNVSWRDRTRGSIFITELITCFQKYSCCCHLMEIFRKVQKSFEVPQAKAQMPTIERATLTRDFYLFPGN
Description: as §1, §2, §3, §4

Caspase-6 = biological target: T4, Caspase-6 (Homo sapiens, UniProt P55212); test: Caspase-6 inhibitor screening assay (BioVision kit, VEID-AFC)
T4 construct: mixing the compounds with the respective active caspases; purchased BioVision K156-100
T4 sequence (P55212 24-179 limits assumed): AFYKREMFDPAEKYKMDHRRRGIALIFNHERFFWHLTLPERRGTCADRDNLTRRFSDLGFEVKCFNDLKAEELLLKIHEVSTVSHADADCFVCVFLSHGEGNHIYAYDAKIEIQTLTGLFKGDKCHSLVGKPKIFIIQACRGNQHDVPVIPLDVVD
T4 sequence (P55212 194-293 limits assumed): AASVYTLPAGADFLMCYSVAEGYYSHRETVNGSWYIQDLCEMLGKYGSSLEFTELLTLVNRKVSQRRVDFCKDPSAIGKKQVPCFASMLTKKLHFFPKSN
Description: as §1, §2, §3, §4

Caspase-4 = biological target: T5, Caspase-4 (Homo sapiens, UniProt P49662); test: Caspase-4 inhibitor screening assay (BioVision kit, LEVD-AFC); conditions: read-out: IC50 Casp4
T5 construct: mixing the compounds with the respective active caspases; purchased BioVision K154-100
T5 sequence (P49662 81-270 limits assumed): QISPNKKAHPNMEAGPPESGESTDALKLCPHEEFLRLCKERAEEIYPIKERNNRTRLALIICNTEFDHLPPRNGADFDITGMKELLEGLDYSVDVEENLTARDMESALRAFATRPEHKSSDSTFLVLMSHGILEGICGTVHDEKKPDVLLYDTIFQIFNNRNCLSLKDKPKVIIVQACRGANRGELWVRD
T5 sequence (P49662 290-377 limits assumed): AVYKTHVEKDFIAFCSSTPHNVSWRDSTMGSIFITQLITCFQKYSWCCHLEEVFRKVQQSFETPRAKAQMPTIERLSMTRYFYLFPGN
Description: as §1, §2, §3, §4

Caspase-7 = biological target: T6, Caspase-7 (Homo sapiens, UniProt P55210); test: Caspase-7 inhibitor screening assay (BioVision kit, DEVD-AFC); conditions: read-out: IC50 Casp7
T6 construct: mixing the compounds with the respective active caspases; purchased BioVision K157-100
T6 sequence (P55210 24-198 limits assumed): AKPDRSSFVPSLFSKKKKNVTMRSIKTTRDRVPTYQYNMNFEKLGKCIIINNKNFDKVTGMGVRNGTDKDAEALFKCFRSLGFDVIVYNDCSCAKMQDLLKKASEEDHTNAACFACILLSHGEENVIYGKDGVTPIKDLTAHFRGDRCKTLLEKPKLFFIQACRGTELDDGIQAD
T6 sequence (P55210 207-303 limits assumed): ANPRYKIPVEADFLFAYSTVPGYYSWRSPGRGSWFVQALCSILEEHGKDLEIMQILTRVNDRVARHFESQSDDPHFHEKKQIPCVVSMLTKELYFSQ
Description: as §1, §2, §3, §4

Caspase-3 = biological target: T7, Caspase-3 (Homo sapiens, UniProt P42574); test: Caspase-3 inhibitor screening assay (BioVision kit, DEVD-AFC); conditions: read-out: IC50 Casp3
T7 construct: mixing the compounds with the respective active caspases; purchased BioVision K153-100
T7 sequence (P42574 29-175 limits assumed): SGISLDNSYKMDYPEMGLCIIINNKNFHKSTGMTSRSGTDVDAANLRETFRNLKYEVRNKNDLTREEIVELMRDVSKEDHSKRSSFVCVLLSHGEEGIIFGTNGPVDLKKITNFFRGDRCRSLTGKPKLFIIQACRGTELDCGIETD
T7 sequence (P42574 176-277 limits assumed): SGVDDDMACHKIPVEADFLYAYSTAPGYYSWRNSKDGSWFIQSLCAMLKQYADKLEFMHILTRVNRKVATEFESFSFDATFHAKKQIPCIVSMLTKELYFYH
Description: as §1, §2, §3, §4

Caspase-8 = biological target: T8, Caspase-8 (Homo sapiens, UniProt Q14790); test: Caspase-8 inhibitor screening assay (BioVision kit, IETD-AFC); conditions: read-out: IC50 Casp8
T8 construct: mixing the compounds with the respective active caspases; purchased BioVision K158-100
T8 sequence (Q14790 217-374 limits assumed): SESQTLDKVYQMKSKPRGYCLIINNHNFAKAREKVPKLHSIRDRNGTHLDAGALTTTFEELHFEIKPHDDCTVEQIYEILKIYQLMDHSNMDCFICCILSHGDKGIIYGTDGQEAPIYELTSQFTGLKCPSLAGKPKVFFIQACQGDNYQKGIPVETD
T8 sequence (Q14790 385-479 limits assumed): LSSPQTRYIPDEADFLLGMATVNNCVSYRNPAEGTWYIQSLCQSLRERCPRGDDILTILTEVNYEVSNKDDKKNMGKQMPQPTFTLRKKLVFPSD
Description: as §1, §2, §3, §4

Caspase-9 = biological target: T9, Caspase-9 (Homo sapiens, UniProt P55211); test: Caspase-9 inhibitor screening assay (BioVision kit, LEHD-AFC); conditions: read-out: IC50 Casp9
T9 construct: purchased BioVision K159-100
T9 sequence (P55211 1-315 limits assumed): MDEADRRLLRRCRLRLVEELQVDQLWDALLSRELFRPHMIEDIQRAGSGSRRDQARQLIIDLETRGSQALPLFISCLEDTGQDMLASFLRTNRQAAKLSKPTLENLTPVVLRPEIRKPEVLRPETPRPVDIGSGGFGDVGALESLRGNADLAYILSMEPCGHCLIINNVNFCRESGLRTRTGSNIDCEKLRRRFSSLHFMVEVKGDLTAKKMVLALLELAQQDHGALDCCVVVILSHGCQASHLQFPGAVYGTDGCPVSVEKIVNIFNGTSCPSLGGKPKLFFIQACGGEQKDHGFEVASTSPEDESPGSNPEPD
T9 sequence (P55211 331-416 limits assumed): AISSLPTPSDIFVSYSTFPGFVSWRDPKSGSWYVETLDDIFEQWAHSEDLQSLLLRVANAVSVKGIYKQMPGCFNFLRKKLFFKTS
Description: as §1, §2, §3, §4

Molecule `CCOC(=O)/C(Cl)=C/[C@H](CC(=O)O)NC(=O)[C@H]1CCCN1C(=O)[C@H](NC(=O)[C@H](CC(=O)O)NC(=O)OCc1ccccc1)C(C)(C)C` [Compound 57, Z-Asp-t-Leu-Pro-Asp αchlorovinyl Ethyl Vinyl Ester] has an IC50 (Caspase-1) of 7900 nM, an IC50 (Caspase-10) of 50 nM and an IC50 (Caspase-5) of 16000 nM. The IC50 (Caspase-6; read-out: IC50 Casp6) was > 100000 nM, the IC50 (Caspase-4) was > 100000 nM and the IC50 (Caspase-7) was 150 nM. For the same molecule, the IC50 (Caspase-3) was 1270 nM.
Work on `CCOC(=O)/C(Cl)=C/[C@H](CC(=O)O)NC(=O)[C@H]1CCCN1C(=O)[C@@H](NC(=O)c1ccc(N)c(Cl)c1)C(C)(C)C` [Compound 117, 4-amino-3-chlorobenzene carbonyl-t-Leu-Pro-Asp αchlorovinyl Ethyl Vinyl Ester] yielded an IC50 (Caspase-8) of 1400 nM, an IC50 (Caspase-1) of 110 nM and an IC50 (Caspase-5) of 900 nM. For the same molecule, the IC50 (Caspase-6; read-out: IC50 Casp6) was > 100000 nM, the IC50 (Caspase-4) was 70 nM and the IC50 (Caspase-7) was > 100000 nM. For the same molecule, the IC50 (Caspase-3) was > 100000 nM.
`CCC(C)[C@H](NC(=O)[C@H](CCC(=O)O)NC(=O)[C@@H](NC(=O)OCc1ccccc1)C(C)C)C(=O)N[C@H](/C=C(\Cl)S(C)(=O)=O)CC(=O)O` (stereo partly drawn) [Compound 123, Z-Val-Glu-Ile-Asp-achlorovinyl methyl vinyl sulfone] showed an IC50 (Caspase-8) of 530 nM, an IC50 (Caspase-1) of 3880 nM and an IC50 (Caspase-9) of 6400 nM. It also gave an IC50 (Caspase-10) of 190 nM, an IC50 (Caspase-5) of 4200 nM and an IC50 (Caspase-6; read-out: inhibition (IC50) against Caspase-6) of 229 nM. The IC50 (Caspase-4) was 1800 nM and the IC50 (Caspase-3) was 1340 nM.

Source: patent US10975119B2, “Selective cysteine protease inhibitors and uses thereof” (Genesis Technologies Limited, priority 2011, dated 2021)
